In US20210212957A1, “MEDICAL DEVICE FOR PREVENTING AND/OR TREATING INFECTIONS OF SKIN LESIONS” (FASTMEDITALIA S.R.L., priority 2020, published 2021):

These compounds were tested on Staphylococcus aureus (gram-positive bacterium; ATCC 6538) (assay: bacterial reduction in a bacterial suspension in dynamic contact with the medical device). Details: temperature environment; dynamic contact time 1 hour; 50 grams of bacterial suspension at 10^5 cells, 1 gram of medical device where present.
Type: cell-based
Protocol: In Table 1, 50 grams of bacterial suspension at a concentration of 10^5 cells was subjected to dynamic contact with 1 gram of the medical device in the presence of cocamido-propyl-betaine (an amphoteric surfactant).
The same experiment was then carried out using no surfactant at all (Table 2) or non-ionic or anionic surfactants (Tables 3 and 4).
For “cocamidopropyl betaine [2 g/l of cocamidopropyl betaine]”, the Bacterial reduction % was 12%.
`CCCCCCCCCCCCOS(=O)(=O)[O-].[Na+]` [Sodium dodecilsulphate] was tested, and the Bacterial reduction % was 16%.
Polyoxyethylenesorbitan monolaurate gave a Bacterial reduction % of 5%.
